Among the data in patent US11542262B2, “Phosphatidylinositol 3-kinase inhibitors” (NANJING ZHENGXIANG PHARMACEUTICALS CO., LTD., priority 2019, dated 2023) are IC50 and solubility values, retold here.

In brackets after ≈: the same amount, converted by molar mass.

For one data set, the target named is PI3Kδ (Homo sapiens, UniProt O00329). Description: ADP-Glo luminescent assay, enzymatic activity of PI3K delta. The class given is biochemical. The conditions noted are these: ATP 25 μM; read-out: PI3K delta (nM) inhibitory activity (IC50). As to the method: Enzymatic activity of PI3K isoforms: Enzymatic activity of the class I PI3K isoforms in the presence of the compounds of Table 1 was measured using ADP-Glo luminescent assay against PI3Kα, PI3Kβ, PI3Kδ and PI3Kγ with ATP concentration at 25 μM. […] The compounds would be tested from 1 or 10 μM, 3-fold dilution for 10 doses, in duplicate.
Compound preparation: Dilute a compound to 100× of the final desired highest inhibitor concentration in reaction by 100% DMSO. Transfer 100 μl of this compound dilution to a well in a 96-well plate and serially dilute it with DMSO for a total of 10 concentrations.
Kinase reaction: Prepare a solution of PI3K in 1× kinase buffer at 2-fold the final concentration of each reagent in the assay. Control wells contain 1× kinase buffer without enzyme. Prepare substrate solution of PIP2 substrate and ATP in 1× kinase reaction buffer at 2-fold of the final concentration. Add concentration substrate solution to each well to the final concentration. Cover the assay plate, shake to mix, and incubate at room temperature for 1 hour. Add 5 μl of ADP-Glo reagent to each well to stop the reaction. Mix briefly with a quick spin, shake slowly on the shaker for 120 min. Add 10 ul Kinase Detection Reagent to each well, shake 1 min, equilibrate for 30 min before reading on a luminescence plate reader.
Data Analysis: Convert RLU values to percent inhibition values as Percent inhibition=(max−sample RLU)/(max−min)*100. “min”—no enzyme control; “max”—DMSO control. Fit the data in XLFit excel add-in version 5.4.0.8 to obtain IC50 values. Y=Bottom+(Top−Bottom)/(1+(IC50/X)^HillSlope).
(In ADP-Glo the light output rises with the ADP produced.)

Data set [1] in a line: Kinetic solubility test in PBS pH7.4. The class given is physicochemical. The conditions noted are these: aqueous buffer, kinetic from dmso stock; PBS pH 7.4, 25° C., 2 hours. As to the method:
15 μL of stock solution (10 mM) was placed in order into their proper 96-well rack. 485 μL of PBS pH7.4 was added into each vial of the cap-less Solubility Sample plate. The assay was performed in singlet. Add one stir stick to each vial and seal using a molded PTFE/Silicone plug. […] After completion of the 2 hours, the samples from the Solubility Sample plate were transferred into the filter plate. all the samples were filtered using the Vacuum Manifold. Aliquot of 5 μL was taken from the filtrate followed by addition of 495 μL of a mixture of H2O and acetonitrile containing internal standard (1:1). A certain proportion of ultrapure water was used to dilute the diluent according to the peak shape. The dilution factor was changed according to the solubility values and the LC-MS signal response.
Preparation of 3 μM standards (STD): From the 10 mM DMSO STD plate, 6 μL was transferred into the remaining empty plate, and then 194 μL of DMSO was added to that plate to have a STD concentration of 300 μM. From the 300 μM DMSO STD plate, 5 μL was transferred into the remaining empty plate, and then 495 μL of a mixture of H2O and acetonitrile containing internal standard (1:1) was added to that plate to have a final STD concentration of 3 μM. A certain proportion of ultrapure water was used to dilute the diluent according to the peak shape. The concentrations of the standard samples were changed according to the LC-MS signal response.
Procedure for sample analysis: The plate was placed into the well plate autosampler. The samples were evaluated by LC-MS/MS analysis.
Data analysis: All calculations were carried out using Microsoft Excel.
The filtrate was analyzed and quantified against a standard of known concentration using LC coupled with mass spectral peak identification and quantitation. Solubility values of the test compound and control compound were calculated as follows:
[formula] • Any value of the compounds that was not within the specified limits was rejected and the experiment was repeated.

The target in a further data set is PI3Kγ (Homo sapiens, UniProt P48736). Kind of data set: ADP-Glo luminescent assay, enzymatic activity of PI3K gamma. It is filed as biochemical. The conditions noted are these: ATP 25 μM; read-out: PI3K gamma (nM) inhibitory activity (IC50).
In the next data set the target is T1, PI3K gamma (Mus musculus, UniProt Q9JHG7).
T1 construct: endogenous in cells; host or cells: RAW264.7
Description: Raw264.7 cell assay: phosphorylation of AKT in C5a stimulated RAW264.7 cells (AlphaLISA). It is filed as cell-based. The conditions noted are these: pAKT, read-out: PI3K gamma Raw264.7 cell (nM) cellular activity (IC50). As to the method: This study aims to determine the inhibitory effect of compounds on PI3K gamma and PI3K delta in corresponding cell based assays. PI3K gamma activity was reflected by phosphorylation of AKT in C5a stimulated RAW264.7 cells, and PI3K delta activity was reflected by phosphorylation of AKT in anti-IgM stimulated Raji cells. Phosphorylation of AKT in cells was determined using AlphaLISA technology from PerkinElmer.
Raw264.7 cell assay: Prepare Passage 15 Raw264.7 cell and add 6 μL of 30K cells per well in 384-well plate by multidrop. Centrifuge at 500 RPM for 30 s and incubate for 2 hours at 37° C., 5% CO2. Add 30 nL compound by echo and incubate for 30 min at 37° C., 5% CO2. […] Add 2 μL of 5× lysis buffer by multidrop, incubate for 10 min on a plate shaker. Add 5 μL acceptor mix provided in the kit, centrifuge at 1000 RPM for 1 min. Add 5 μL donor mix provided in the kit, centrifuge at 1000 RPM for 1 min and incubate in dark for 2 hours at 25° C. Read AlphaLISA signal on Envision.
Y=Bottom+(Top−Bottom)/(1+10^((Log IC50−X)*Hill Slope)) X: Log of cpd concentration Y: Inhibition
For orientation: In Alpha technology, singlet oxygen from a donor bead excites a nearby acceptor bead.

PI3Kγ, sequence (P48736 whole entry, species assumed): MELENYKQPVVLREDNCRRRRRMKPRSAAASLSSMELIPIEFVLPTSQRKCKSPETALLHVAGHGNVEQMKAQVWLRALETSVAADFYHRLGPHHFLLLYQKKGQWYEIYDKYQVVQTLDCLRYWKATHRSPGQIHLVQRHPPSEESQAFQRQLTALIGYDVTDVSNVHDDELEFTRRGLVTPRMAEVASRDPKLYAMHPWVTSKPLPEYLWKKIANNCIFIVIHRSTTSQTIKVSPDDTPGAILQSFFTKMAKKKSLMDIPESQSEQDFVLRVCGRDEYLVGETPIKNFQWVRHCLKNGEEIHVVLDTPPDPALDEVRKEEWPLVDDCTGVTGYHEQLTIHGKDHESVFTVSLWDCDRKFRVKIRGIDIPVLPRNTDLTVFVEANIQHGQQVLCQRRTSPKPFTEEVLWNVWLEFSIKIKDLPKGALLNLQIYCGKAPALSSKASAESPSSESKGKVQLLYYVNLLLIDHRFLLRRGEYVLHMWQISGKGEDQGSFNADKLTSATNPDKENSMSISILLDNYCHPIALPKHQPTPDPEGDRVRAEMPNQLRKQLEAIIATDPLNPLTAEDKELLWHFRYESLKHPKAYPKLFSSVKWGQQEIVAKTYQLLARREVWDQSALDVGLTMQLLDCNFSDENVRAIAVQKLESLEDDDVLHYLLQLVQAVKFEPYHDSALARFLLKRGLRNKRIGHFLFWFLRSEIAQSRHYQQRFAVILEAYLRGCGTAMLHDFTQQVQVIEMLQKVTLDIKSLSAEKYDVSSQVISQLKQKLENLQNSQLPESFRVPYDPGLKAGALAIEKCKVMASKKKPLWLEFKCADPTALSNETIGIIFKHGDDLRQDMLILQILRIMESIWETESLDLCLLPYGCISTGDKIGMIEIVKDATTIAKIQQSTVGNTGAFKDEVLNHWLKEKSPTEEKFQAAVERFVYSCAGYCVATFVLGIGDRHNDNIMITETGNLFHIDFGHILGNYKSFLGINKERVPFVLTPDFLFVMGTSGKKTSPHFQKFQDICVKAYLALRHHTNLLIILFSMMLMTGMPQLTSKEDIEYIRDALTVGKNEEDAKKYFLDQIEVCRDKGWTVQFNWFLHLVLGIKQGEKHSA
PI3Kδ, sequence (O00329 whole entry, species assumed, canonical isoform): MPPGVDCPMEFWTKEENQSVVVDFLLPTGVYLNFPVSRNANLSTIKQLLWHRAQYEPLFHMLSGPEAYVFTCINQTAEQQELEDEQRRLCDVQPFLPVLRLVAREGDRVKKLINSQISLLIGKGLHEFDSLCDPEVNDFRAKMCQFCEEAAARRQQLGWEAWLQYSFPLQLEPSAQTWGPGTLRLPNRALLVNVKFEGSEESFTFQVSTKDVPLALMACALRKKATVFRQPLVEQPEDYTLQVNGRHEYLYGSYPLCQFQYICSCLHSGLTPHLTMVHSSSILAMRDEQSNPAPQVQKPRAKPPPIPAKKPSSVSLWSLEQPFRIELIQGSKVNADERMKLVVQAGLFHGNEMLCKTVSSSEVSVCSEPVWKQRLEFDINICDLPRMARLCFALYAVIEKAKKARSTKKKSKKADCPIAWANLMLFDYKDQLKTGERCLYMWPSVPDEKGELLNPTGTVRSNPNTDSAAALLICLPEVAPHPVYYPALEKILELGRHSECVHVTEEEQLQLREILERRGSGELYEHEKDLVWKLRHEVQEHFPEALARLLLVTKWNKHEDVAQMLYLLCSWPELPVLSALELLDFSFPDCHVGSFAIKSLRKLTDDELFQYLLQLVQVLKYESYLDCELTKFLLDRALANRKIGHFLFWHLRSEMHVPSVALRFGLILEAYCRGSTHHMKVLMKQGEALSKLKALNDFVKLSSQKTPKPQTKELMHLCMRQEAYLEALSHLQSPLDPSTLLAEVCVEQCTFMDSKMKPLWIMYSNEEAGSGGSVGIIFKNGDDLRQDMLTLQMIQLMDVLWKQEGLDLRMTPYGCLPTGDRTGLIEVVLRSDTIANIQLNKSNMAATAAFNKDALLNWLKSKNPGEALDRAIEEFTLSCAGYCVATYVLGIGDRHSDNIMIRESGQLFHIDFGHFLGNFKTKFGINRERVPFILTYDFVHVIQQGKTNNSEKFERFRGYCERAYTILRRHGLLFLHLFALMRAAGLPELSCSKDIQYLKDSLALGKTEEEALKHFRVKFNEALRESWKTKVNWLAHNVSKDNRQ
PI3Kδ, sequence (P27986 whole entry partner, species assumed, canonical isoform): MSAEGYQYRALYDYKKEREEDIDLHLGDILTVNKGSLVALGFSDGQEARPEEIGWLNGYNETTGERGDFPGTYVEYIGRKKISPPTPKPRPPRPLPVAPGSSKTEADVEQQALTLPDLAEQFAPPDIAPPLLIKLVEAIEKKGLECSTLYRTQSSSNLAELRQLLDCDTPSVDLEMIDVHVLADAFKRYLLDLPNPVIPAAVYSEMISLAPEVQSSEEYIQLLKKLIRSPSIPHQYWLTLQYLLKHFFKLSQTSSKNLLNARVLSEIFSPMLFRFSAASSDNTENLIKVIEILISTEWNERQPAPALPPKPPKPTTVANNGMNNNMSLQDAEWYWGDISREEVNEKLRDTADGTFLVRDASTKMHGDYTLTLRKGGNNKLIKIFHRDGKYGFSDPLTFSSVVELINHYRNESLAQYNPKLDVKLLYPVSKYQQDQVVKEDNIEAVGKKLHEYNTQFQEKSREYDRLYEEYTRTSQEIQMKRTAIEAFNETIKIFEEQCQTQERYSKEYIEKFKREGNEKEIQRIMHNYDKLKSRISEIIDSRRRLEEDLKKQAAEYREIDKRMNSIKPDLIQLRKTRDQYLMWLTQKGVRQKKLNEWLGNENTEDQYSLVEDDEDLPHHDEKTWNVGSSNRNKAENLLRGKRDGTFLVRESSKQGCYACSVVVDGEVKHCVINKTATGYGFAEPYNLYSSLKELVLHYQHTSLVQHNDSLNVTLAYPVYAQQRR
T1 sequence (Q9JHG7 whole entry): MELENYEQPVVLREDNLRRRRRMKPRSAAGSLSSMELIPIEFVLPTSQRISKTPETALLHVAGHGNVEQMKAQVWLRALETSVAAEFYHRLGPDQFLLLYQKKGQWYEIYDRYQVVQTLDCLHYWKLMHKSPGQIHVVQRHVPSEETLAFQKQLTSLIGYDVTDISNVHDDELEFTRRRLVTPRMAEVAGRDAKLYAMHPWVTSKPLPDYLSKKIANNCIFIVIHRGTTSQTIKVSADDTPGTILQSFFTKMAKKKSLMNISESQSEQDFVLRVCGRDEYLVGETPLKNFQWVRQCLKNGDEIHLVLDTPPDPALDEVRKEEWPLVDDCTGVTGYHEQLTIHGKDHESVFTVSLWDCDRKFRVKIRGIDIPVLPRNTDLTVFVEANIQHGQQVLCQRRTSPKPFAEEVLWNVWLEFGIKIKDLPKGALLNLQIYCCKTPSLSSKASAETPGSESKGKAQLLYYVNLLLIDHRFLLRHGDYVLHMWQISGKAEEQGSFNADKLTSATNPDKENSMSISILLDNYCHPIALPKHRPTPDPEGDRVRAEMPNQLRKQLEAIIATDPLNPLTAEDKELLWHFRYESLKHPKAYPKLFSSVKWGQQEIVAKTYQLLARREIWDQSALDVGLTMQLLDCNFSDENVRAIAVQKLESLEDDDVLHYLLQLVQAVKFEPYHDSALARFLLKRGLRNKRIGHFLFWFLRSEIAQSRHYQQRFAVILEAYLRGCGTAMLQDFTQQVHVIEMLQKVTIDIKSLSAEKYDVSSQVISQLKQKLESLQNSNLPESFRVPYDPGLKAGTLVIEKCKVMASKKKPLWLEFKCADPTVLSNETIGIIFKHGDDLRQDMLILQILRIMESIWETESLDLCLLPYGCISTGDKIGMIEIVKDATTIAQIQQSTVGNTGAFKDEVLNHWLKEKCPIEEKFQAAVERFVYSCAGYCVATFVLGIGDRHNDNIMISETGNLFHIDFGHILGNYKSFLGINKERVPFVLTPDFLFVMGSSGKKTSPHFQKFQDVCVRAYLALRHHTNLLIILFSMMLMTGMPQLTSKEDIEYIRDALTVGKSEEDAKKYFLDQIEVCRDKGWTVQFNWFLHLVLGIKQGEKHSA
T1 sequence (Q5SW28 whole entry partner): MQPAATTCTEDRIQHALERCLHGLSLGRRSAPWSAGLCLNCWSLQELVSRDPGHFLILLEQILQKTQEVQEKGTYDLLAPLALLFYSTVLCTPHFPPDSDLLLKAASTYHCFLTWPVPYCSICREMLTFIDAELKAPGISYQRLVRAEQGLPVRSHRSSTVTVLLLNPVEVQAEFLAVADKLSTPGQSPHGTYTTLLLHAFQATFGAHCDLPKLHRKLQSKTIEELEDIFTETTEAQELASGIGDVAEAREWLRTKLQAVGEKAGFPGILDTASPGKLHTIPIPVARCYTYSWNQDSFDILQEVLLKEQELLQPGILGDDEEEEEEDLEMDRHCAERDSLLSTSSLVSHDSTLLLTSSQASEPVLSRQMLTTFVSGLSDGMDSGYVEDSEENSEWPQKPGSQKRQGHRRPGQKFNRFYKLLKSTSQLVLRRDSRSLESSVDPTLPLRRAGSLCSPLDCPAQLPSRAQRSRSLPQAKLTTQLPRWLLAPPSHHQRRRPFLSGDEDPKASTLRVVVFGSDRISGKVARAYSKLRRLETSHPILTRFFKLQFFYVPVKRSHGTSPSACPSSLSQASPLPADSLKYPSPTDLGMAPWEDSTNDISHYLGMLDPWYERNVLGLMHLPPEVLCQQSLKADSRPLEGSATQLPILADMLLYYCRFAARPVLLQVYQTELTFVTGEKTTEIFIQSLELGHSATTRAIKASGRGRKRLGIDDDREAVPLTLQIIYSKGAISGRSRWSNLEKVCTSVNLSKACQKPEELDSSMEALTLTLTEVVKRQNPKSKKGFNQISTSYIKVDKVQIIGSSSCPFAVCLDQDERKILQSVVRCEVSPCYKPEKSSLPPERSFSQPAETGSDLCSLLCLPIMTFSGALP

Turning to `CC(=O)Nc1nc(C)c(-c2cc3c(c([S@@+](C)[O-])c2)C(=O)N([C@@H](C)C2CC2)C3)s1` (racemic) [Compound 12, N-(5-(2-((S)-1-cyclopropylethyl)-7-(methylsulfinyl)-1-oxoisoindolin-5-yl)-4-methylthiazol-2-yl)acetamide], the IC50 at PI3Kδ stood at 2080 nM; on PI3Kγ, 1.7 nM; on PI3K gamma it was 30 nM. Moreover, the solubility (in general, the concentration that dissolves in the medium under given conditions) at 2 h in data set [1] is 211 µM (≈ 88.1 µg/mL).

For `CC(=O)Nc1nc(C)c(-c2cc3c(c([S@](C)(=N)=O)c2)C(=O)N([C@@H](C)C2CC2)C3)s1` (racemic) [Compound 15, N-(5-(2-((S)-1-cyclopropylethyl)-7-(S-methylsulfonimidoyl)-1-oxoisoindolin-5-yl)-4-methylthiazol-2-yl)acetamide], the figures for the IC50 on PI3Kδ, on PI3Kγ and at PI3K gamma were 784 nM, 1.9 nM and 130 nM, respectively. This molecule came in with a solubility at 2 h in data set [1] of 245 µM (≈ 106 µg/mL).

For the molecule `CC(=O)Nc1nc(C)c(-c2cc3c(c(N4CCOCC4)n2)C(=O)N(C(C)C(F)(F)F)C3)s1` (stereo in doubt) [Compound 36, (R)-N-(4-methyl-5-(4-morpholino-3-oxo-2-(1,1,1-trifluoropropan-2-yl)-2,3-dihydro-1H-pyrrolo[3,4-c]pyridin-6-yl)thiazol-2-yl)acetamide], the IC50 came to 1250 nM at PI3Kδ, 2.4 nM on PI3Kγ and 3.3 nM at PI3K gamma. The solubility at 2 h in data set [1] worked out at 32 µM (≈ 15 µg/mL).

With `CC(=O)Nc1nc(C)c(-c2cnc3c(c2)CN([C@@H](C)C2CC2)C3=O)s1` [Compound 8, (S)-N-(5-(6-(1-cyclopropylethyl)-7-oxo-6,7-dihydro-5H-pyrrolo[3,4-b]pyridin-3-yl)-4-methylthiazol-2-yl)acetamide], the IC50 at PI3Kδ came to 361 nM; at PI3Kγ, 34 nM; on PI3K gamma it was 115 nM.

For the molecule `CC(=O)Nc1nc(C)c(-c2ccc3c(c2)CN([C@@H](C)C2CC2)C3=O)s1` [Compound 10, (S)-N-(5-(2-(1-cyclopropylethyl)-1-oxoisoindolin-5-yl)-4-methylthiazol-2-yl)acetamide], the IC50 came out at 359 nM at PI3Kδ, 2.5 nM on PI3Kγ and 290 nM at PI3K gamma.

With `CC(=O)Nc1nc(C)c(-c2cc3c(c(S(C)(=O)=O)n2)C(=O)N([C@@H](C)C2CC2)C3)s1` [Compound 19, (S)-N-(5-(2-(1-cyclopropylethyl)-4-(methylsulfonyl)-3-oxo-2,3-dihydro-1H-pyrrolo[3,4-c]pyridin-6-yl)-4-methylthiazol-2-yl)acetamide], the results for the IC50 on PI3Kδ, on PI3Kγ and at PI3K gamma were greater than 1000 nM, 1.6 nM and 28 nM, respectively.

As to `CC(=O)Nc1nc(C)c(-c2cc3c(c(NC(C)=O)n2)C(=O)N([C@@H](C)C2CC2)C3)s1` [Compound 44, (S)-N-(5-(4-acetamido-2-(1-cyclopropylethyl)-3-oxo-2,3-dihydro-M-pyrrolo[3,4-c]pyridin-6-yl)-4-methylthiazol-2-yl)acetamide], the IC50 on PI3Kδ is greater than 1000 nM; at PI3Kγ it was 0.87 nM; on PI3K gamma, 5.1 nM. The concentration in solution in data set [1] (solubility at 2 h) was 1.2 µM (≈ 0.496 µg/mL).
